Reference: PubChem BioAssay AID2060626 (Molecular Pharmacology Branch, DTP, NCI, 2025)

Test system: 168753-222-R-J1-PDC complex spheroid viability
Test: Anticancer human tumor 168753-222-R-J1-PDC patient-derived bladder carcinoma cell line growth inhibition [CLK]
Conditions: for IC50: curve of first compound; for viability, T/C: stronger effect = lower value
From the text: A high-throughput screen of multi-cell type tumor spheroids was designed to identify active combinations of […] and targeted small molecules. Complex spheroids include a stromal component modeled by human endothelial cells (HUVEC) and fibroblasts modeled by human mesenchymal stem cells (MSCs). The concentration ranges selected for each drug and investigational agent were based upon clinically achievable concentrations if the clinical Cmax of the agent was known.
Compounds. The drugs and investigational agents: cirtuvivint (SM08502; NSC835563), CC-671 (NSC850746), vemurafenib (NSC761431), tapotoclax (NSC804041), sotorasib (NSC818433), adagrasib (NSC831453), MRTX-1133 (NSC836407), BAY2416964 (NSC825713), copanlisib (NSC816437), inavolisib (NSC800729), abemaciclib (NSC768073), osimertinib (NSC779217), entinostat (NSC756642), eltanexor (KPT-8602, NSC794443), venetoclax (NSC766270), ceralasertib (NSC777638), bortezomib (NSC756655), olaparib (NSC753686), talazoparib (NSC767125), alisertib (NSC759677), peposertib (NSC802822), gemcitabine (NSC613327), 5-fluorouracil (NSC19893), SN-38 (NSC673596), oxaliplatin (NSC266046), paclitaxel (NSC125973), and doxorubicin (NSC123127), were obtained from the National Cancer Institute (NCI) Developmental Therapeutics Program Chemical Repository. The FDA-approved anticancer drug set is available from the Developmental Therapeutics Program at https://dtp.cancer.gov/organization/dscb/obtaining/available plates.htm. […] The stock solutions were prepared in dimethyl sulfoxide (DMSO, Sigma-Aldrich, St. Louis, MO, cat. D2650), except for the platinum complexes which were prepared in saline (Quality Biological, Gaithersburg, MD, cat. 114-055-101), at 800-fold the tested concentration and stored at -70 degrees C prior to their use. All drugs and investigational agents were tested over a range starting from a high concentration at or near the clinical Cmax and decreasing in half-log increments. If the clinical Cmax for an agent had not been determined, the highest concentration tested was 10 microM.
Cell Culture. All cells were maintained in an incubator at 37 degrees C and 5% CO2 with 95% humidity. The PDC lines were cultured according to standard operating procedures established by the NCI PDMR. Briefly, all PDCs were thawed and cultured in Matrigel-coated flasks prepared with a working solution of 1X Ham's F-12 nutrient mix, without supplementation (Invitrogen, Waltham, MA, cat. 11765054), 100 U/mL penicillin-streptomycin (Invitrogen, cat. 15140122), and 2.5% Matrigel (Corning Inc., Corning, NY, cat. 354248) for the first three passages. The 947758-054-R-J2-PDC line was cultured in 6B/Colon 1A media, which includes advanced DMEM/F-12 (Thermo Fisher Scientific, cat. 12634028), 10 mM HEPES (Thermo Fisher Scientific, cat. 15630080), 1X GlutaMAX supplement (Thermo Fisher Scientific, cat. 35050061), 0.1 mg/mL primocin (InvivoGen, cat. ant-pm-2), 10% defined fetal bovine serum, heat inactivated (HyClone Laboratories Inc., cat. SH30070.03HI), 1.25 mM N-Acetyl-L-cysteine (Sigma-Aldrich, cat. A9165), 10 mM nicotinamide (Sigma-Aldrich, cat. N0636), 1X B-27 supplement (Thermo Fisher Scientific, cat. 17504044), 1X N-2 supplement (Thermo Fisher Scientific, cat. 17502048), and 10 microM Y-27632 dihydrochloride (Tocris Bioscience, cat. 1254). The 876862-298-R-J1-PDC was cultured in 6E media, which includes all 6B/Colon 1A media components plus 50% L-WRN conditioned media (ATCC, cat. CRL-3276), 50 ng/mL recombinant human EGF recombinant protein (hEGF; Thermo Fisher Scientific, cat. PHG0311), 10 ng/mL recombinant human fibroblast growth factor 10 (hGFG-10; PeproTech, cat. 100-26), 1 ng/mL recombinant human fibroblast growth factor 2 (hFGF-2; PeproTech, cat. 100-18B), and 1 µM prostaglandin E2 (PGE2; Tocris, cat. 2296). The 227483-062-R1-J1-PDC line was cultured in Panc media, containing all 6E components except hFGF-2, with the addition of 500 nM SB-431542 (Selleckchem, cat. S1067) and 10 nM gastrin (Tocris, cat. 3006). […]
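Further: viability measured after seven days of drug exposure.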
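Wherever viability, T/C is given: luminescence signal used as surrogate for viable cell amount; 100% = DMSO vehicle control wells.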

SMILES: CC(Nc1ccc2c(c1)OCCn1cc(N3C(=O)OCC3C(F)F)nc1-2)C(N)=O (configuration not stated) + CN1CCN(c2cc(C(=O)Nc3cc4cc(-c5cnn(C)c5)ccc4cn3)ccn2)CC1
- IC50 (second compound 0.0316 µM): 65.7 nM
- IC50 (second compound 0.1 µM): < 31.6 nM
- IC50 (second compound 0.316 µM): < 31.6 nM
- IC50 (second compound 1 µM): < 31.6 nM
- IC50 (second compound 3.16 µM): < 31.6 nM
- IC50 (second compound 10 µM): < 31.6 nM
- viability, T/C (second compound 0.0316 µM, first compound 0.0316 µM): 72.8%
- viability, T/C (second compound 0.0316 µM, first compound 0.1 µM): 37%
- viability, T/C (second compound 0.0316 µM, first compound 0.316 µM): 15%
- viability, T/C (second compound 0.0316 µM, first compound 1 µM): 12.5%
- viability, T/C (second compound 0.0316 µM, first compound 3.16 µM): 9.81%
- viability, T/C (second compound 0.0316 µM, first compound 10 µM): 9.9%
- viability, T/C (second compound 0.1 µM, first compound 0.0316 µM): 41.8%
- viability, T/C (second compound 0.1 µM, first compound 0.1 µM): 18.2%
- viability, T/C (second compound 0.1 µM, first compound 0.316 µM): 12.3%
- viability, T/C (second compound 0.1 µM, first compound 1 µM): 8.91%
- viability, T/C (second compound 0.1 µM, first compound 3.16 µM): 7%
- viability, T/C (second compound 0.1 µM, first compound 10 µM): 7.78%
- viability, T/C (second compound 0.316 µM, first compound 0.0316 µM): 15.9%
- viability, T/C (second compound 0.316 µM, first compound 0.1 µM): 10.2%
- viability, T/C (second compound 0.316 µM, first compound 0.316 µM): 7.13%
- viability, T/C (second compound 0.316 µM, first compound 1 µM): 1.63%
- viability, T/C (second compound 0.316 µM, first compound 3.16 µM): 0.95%
- viability, T/C (second compound 0.316 µM, first compound 10 µM): 0.77%
- viability, T/C (second compound 1 µM, first compound 0.0316 µM): 0.37%
- viability, T/C (second compound 1 µM, first compound 0.1 µM): 0.22%
- viability, T/C (second compound 1 µM, first compound 0.316 µM): 0.1%
- viability, T/C (second compound 1 µM, first compound 1 µM): 0.05%
- viability, T/C (second compound 1 µM, first compound 3.16 µM): 0.08%
- viability, T/C (second compound 1 µM, first compound 10 µM): 0.08%
- viability, T/C (second compound 3.16 µM, first compound 0.0316 µM): 0.12%
- viability, T/C (second compound 3.16 µM, first compound 0.1 µM): 0.1%
- viability, T/C (second compound 3.16 µM, first compound 0.316 µM): 0.35%
- viability, T/C (second compound 3.16 µM, first compound 1 µM): 0.06%
- viability, T/C (second compound 3.16 µM, first compound 3.16 µM): 2.39%
- viability, T/C (second compound 3.16 µM, first compound 10 µM): 0.59%
- viability, T/C (second compound 10 µM, first compound 0.0316 µM): 0.05%
- viability, T/C (second compound 10 µM, first compound 0.1 µM): 0.11%
- viability, T/C (second compound 10 µM, first compound 0.316 µM): 1.89%
- viability, T/C (second compound 10 µM, first compound 1 µM): 0.11%
- viability, T/C (second compound 10 µM, first compound 3.16 µM): 0.27%
- viability, T/C (second compound 10 µM, first compound 10 µM): 0.33%
